Laboratory results: patent US12404265B2, “Substituted pyridine derivatives as SARM1 inhibitors” (Nura Bio, Inc., priority 2020, dated 2025)

These compounds were tested against T1, human SARM1(50-724) (Homo sapiens, UniProt Q6SZW1) (assay: SARM1 NADase biochemical assay (HPLC of NAD and NAM)). Conditions: 40 nM human SARM1(50-724), 0.3 mM NMN, 20 μM NAD, 60 minutes room temperature; dose-response from 100 μM, 1:3 dilution.
T1 construct: 40 nM human SARM1(50-724)
T1 sequence (Q6SZW1 50-724): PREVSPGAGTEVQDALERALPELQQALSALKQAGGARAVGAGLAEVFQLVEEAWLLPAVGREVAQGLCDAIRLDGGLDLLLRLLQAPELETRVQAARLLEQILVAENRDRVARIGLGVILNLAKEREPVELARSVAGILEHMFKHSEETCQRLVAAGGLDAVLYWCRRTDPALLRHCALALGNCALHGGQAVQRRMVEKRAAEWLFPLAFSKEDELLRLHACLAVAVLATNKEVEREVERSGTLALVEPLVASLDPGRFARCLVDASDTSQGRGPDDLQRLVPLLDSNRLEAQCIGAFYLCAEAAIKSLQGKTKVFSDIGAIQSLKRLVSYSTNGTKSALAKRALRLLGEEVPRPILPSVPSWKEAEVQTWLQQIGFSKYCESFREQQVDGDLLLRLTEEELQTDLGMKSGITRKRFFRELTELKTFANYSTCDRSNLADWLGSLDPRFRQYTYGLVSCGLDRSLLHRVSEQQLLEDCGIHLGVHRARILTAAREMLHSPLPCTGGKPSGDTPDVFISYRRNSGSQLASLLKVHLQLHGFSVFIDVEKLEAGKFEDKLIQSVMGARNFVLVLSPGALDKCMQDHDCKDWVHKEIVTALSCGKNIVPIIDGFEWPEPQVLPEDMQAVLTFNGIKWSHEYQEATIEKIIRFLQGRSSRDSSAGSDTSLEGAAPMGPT
In short: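 Human SARM1(50-724) at 40 nM with 0.3 mM NMN, 20 μM NAD, 1 mM TCEP in 25 mM HEPES pH 7.4, 10 mM KCl, 10 mM MgCl2, 1% DMSO; 60 min at room temperature, formic acid quench. NAD and NAM quantified by reverse-phase HPLC peak area; single point 50 μM or 1:3 series from 100 μM.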

`Cc1c(NC(=O)CCc2cc(F)c(Cl)c(F)c2)cnn1-c1ccncc1` [Example 83, 3-(4-Chloro-3,5-difluorophenyl)-N-(5-methyl-1-(pyridin-4-yl)-1H-pyrazol-4-yl)propanamide] and `Cc1c(NC(=O)CCc2cc(F)c(F)c(F)c2)cnn1-c1ccncc1` [Example 84, N-(5-Methyl-1-(pyridin-4-yl)-1H-pyrazol-4-yl)-3-(3,4,5-trifluorophenyl)propanamide] cannot be ordered by IC50: less than 1 µM for the first, less than 1 µM for the second.

Compared with `Cc1c(NC(=O)COc2ccc(Cl)cc2)cnn1-c1ccncc1` [Example 85, 2-(4-Chlorophenoxy)-N-(5-methyl-1-(pyridin-4-yl)-1H-pyrazol-4-yl)acetamide], `Cc1c(NC(=O)CCc2ccc(Cl)cc2)cnn1-c1ccncc1` [Example 86] is lower in IC50: 1 to 10 µM for the first, less than 1 µM for the second. The second is the more potent here.

`O=C(CCc1cc(F)c(Cl)c(F)c1)Nc1cnn(-c2ccncc2)c1` [Example 88, 3-(4-Chloro-3,5-difluorophenyl)-N-[1-(pyridin-4-yl)-1H-pyrazol-4-yl]propanamide] and `O=C(CCc1cc(F)c(Cl)c(F)c1)Nc1cnn(-c2ccncc2)c1Cl` [Example 91, N-(5-Chloro-1-(pyridin-4-yl)-1H-pyrazol-4-yl)-3-(4-chloro-3,5-difluorophenyl)propanamide] cannot be ordered by IC50: less than 1 µM for the first, less than 1 µM for the second.

First: O=C(CCc1ccc(Cl)cc1)Nc1cnn(-c2ccncc2)c1 [Example 89, 3-(4-Chlorophenyl)-N-(1-(pyridin-4-yl)-1H-pyrazol-4-yl)propanamide]
Second: O=C(CCc1ccc(Br)cc1)Nc1cnn(-c2ccncc2)c1 [Example 114, 3-(4-Bromophenyl)-N-(1-(pyridin-4-yl)-1H-pyrazol-4-yl)propanamide]
The IC50 of the first is higher: 1 to 10 µM for the first, less than 1 µM for the second.

`O=C(CCc1ccc(Cl)cc1)Nc1cnn(-c2ccncc2)c1Cl` [Example 90] and `O=C(CCc1ccc(Cl)cc1)Nc1cnn(-c2ccncc2)c1C(F)(F)F` [Example 95, 3-(4-Chlorophenyl)-N-(1-(pyridin-4-yl)-5-(trifluoromethyl)-1H-pyrazol-4-yl)propanamide] cannot be ordered by IC50: less than 1 µM for the first, less than 1 µM for the second.

`O=C(CCc1cc(F)c(F)c(F)c1)Nc1cnn(-c2ccncc2)c1Cl` [Example 92, N-(5-Chloro-1-(pyridin-4-yl)-1H-pyrazol-4-yl)-3-(3,4,5-trifluorophenyl)propanamide] and `N#Cc1c(F)cc(CCC(=O)Nc2cnn(-c3ccncc3)c2Cl)cc1F` [Example 93, N-(5-Chloro-1-(pyridin-4-yl)-1H-pyrazol-4-yl)-3-(4-cyano-3,5-difluorophenyl)propanamide] cannot be ordered by IC50: less than 1 µM for the first, less than 1 µM for the second.

`N#Cc1ccc(CCC(=O)Nc2cnn(-c3ccncc3)c2Cl)cc1F` [Example 94, N-(5-Chloro-1-(pyridin-4-yl)-1H-pyrazol-4-yl)-3-(4-cyano-3-fluorophenyl)propanamide] and `N#Cc1ccc(CCC(=O)Nc2cc(-c3ccncc3)n[nH]2)cc1F` [Example 103] cannot be ordered by IC50: less than 1 µM for the first, less than 1 µM for the second.

`O=C(CCc1ccc(Cl)cc1)Nc1[nH]nc(-c2ccncc2)c1Cl` [Example 96, N-(4-Chloro-3-(pyridin-4-yl)-1H-pyrazol-5-yl)-3-(4-chlorophenyl)propanamide] and `O=C(CCc1ccc(Cl)cc1)Nc1[nH]nc(-c2ccncc2)c1CO` [Example 116, 3-(4-Chlorophenyl)-N-(4-(hydroxymethyl)-3-(pyridin-4-yl)-1H-pyrazol-5-yl)propanamide] cannot be ordered by IC50: less than 1 µM for the first, less than 1 µM for the second.

`O=C(CCc1cc(F)c(Cl)c(F)c1)Nc1[nH]nc(-c2ccncc2)c1Cl` [Example 97, 3-(4-Chloro-3,5-difluorophenyl)-N-(4-chloro-3-(pyridin-4-yl)-1H-pyrazol-5-yl)propanamide] and `O=C(CCc1cc(F)c(Cl)c(F)c1)Nc1[nH]nc(-c2ccncc2)c1CO` [Example 117, 3-(4-Chloro-3,5-difluorophenyl)-N-(4-(hydroxymethyl)-3-(pyridin-4-yl)-1H-pyrazol-5-yl)propanamide] cannot be ordered by IC50: less than 1 µM for the first, less than 1 µM for the second.

Compared with `O=C(CCc1ccc(Cl)cc1)Nc1cc(-c2ccncc2)n[nH]1` [Example 98, 3-(4-Chlorophenyl)-N-(3-(pyridin-4-yl)-1H-pyrazol-5-yl)propanamide], `O=C(CCc1cccc(Cl)c1)Nc1cc(-c2ccncc2)n[nH]1` [Example 100, 3-(3-Chlorophenyl)-N-(3-(pyridin-4-yl)-1H-pyrazol-5-yl)propanamide] is higher in IC50: less than 1 µM for the first, 1 to 10 µM for the second. The first is the more potent here.

First: O=C(CCc1ccc2c(c1)OCO2)Nc1cc(-c2ccncc2)n[nH]1 [Example 99, 3-(Benzo[d][1,3]dioxol-5-yl)-N-(3-(pyridin-4-yl)-1H-pyrazol-5-yl)propanamide]
Second: O=C(CCc1cc(F)c(Cl)c(F)c1)Nc1cc(-c2ccncc2)n[nH]1 [Example 101, 3-(4-Chloro-3,5-difluorophenyl)-N-(3-(pyridin-4-yl)-1H-pyrazol-5-yl)propanamide]
The IC50 of the first is higher: 1 to 10 µM for the first, less than 1 µM for the second.

`O=C(CCc1cc(F)c(F)c(F)c1)Nc1cc(-c2ccncc2)n[nH]1` [Example 102, N-(3-(Pyridin-4-yl)-1H-pyrazol-5-yl)-3-(3,4,5-trifluorophenyl)propanamide] and `N#Cc1c(F)cc(CCC(=O)Nc2cc(-c3ccncc3)n[nH]2)cc1F` [Example 104, 3-(4-Cyano-3,5-difluorophenyl)-N-(3-(pyridin-4-yl)-1H-pyrazol-5-yl)propanamide] cannot be ordered by IC50: less than 1 µM for the first, less than 1 µM for the second.

Compared with `Cn1c(NC(=O)CCc2ccc(Cl)cc2)cnc1-c1ccncc1` [Example 105, 3-(4-Chlorophenyl)-N-(1-methyl-2-(pyridin-4-yl)-1H-imidazol-5-yl)propanamide], `O=C(CCc1ccc(Cl)cc1)Nc1nc(-c2ccncc2)c[nH]1` [Example 108] is higher in IC50: less than 1 µM for the first, 1 to 10 µM for the second.

`Cc1cnccc1-c1cc(NC(=O)CCc2ccc(Cl)cc2)[nH]n1` [Example 106, 3-(4-Chlorophenyl)-N-(3-(3-methylpyridin-4-yl)-1H-pyrazol-5-yl)propanamide] and `Cc1cnccc1-c1n[nH]c(NC(=O)CCc2ccc(Cl)cc2)c1C` [Example 110] cannot be ordered by IC50: less than 1 µM for the first, less than 1 µM for the second.

`Cc1nn(-c2ccncc2)cc1NC(=O)CCc1ccc(Cl)cc1` [Example 107] and `Cc1cnccc1-n1cc(NC(=O)CCc2ccc(Cl)cc2)cn1` [Example 109, 3-(4-Chlorophenyl)-N-(1-(3-methylpyridin-4-yl)-1H-pyrazol-4-yl)propanamide] fall in the same range of IC50: 1 to 10 µM for the first, 1 to 10 µM for the second.

First: Cc1cnccc1-c1n[nH]c(NC(=O)CCc2cc(F)c(Cl)c(F)c2)c1C [Example 111, 3-(4-Chloro-3,5-difluorophenyl)-N-(4-methyl-3-(3-methylpyridin-4-yl)-1H-pyrazol-5-yl)propanamide]
Second: Cc1cnccc1-c1n[nH]c(NC(=O)CCc2cc(F)c(C#N)c(F)c2)c1C [Example 113]
The IC50 of the first is lower: less than 1 µM for the first, 1 to 10 µM for the second. The first is the more potent here.

First: Cc1cnccc1-c1n[nH]c(NC(=O)CCc2ccc(C#N)c(F)c2)c1C [Example 112, 3-(4-Cyano-3-fluorophenyl)-N-(4-methyl-3-(3-methylpyridin-4-yl)-1H-pyrazol-5-yl)propanamide]
Second: O=C(CCc1ccc(Cl)c(F)c1)Nc1[nH]nc(-c2ccncc2)c1CO [Example 118]
The IC50 of the first is higher: 1 to 10 µM for the first, less than 1 µM for the second. The second is the more potent here.

First: O=C(CCc1ccc(F)cc1)Nc1cnn(-c2ccncc2)c1 [Example 115]
Second: O=C(CCc1cc(F)c(F)c(F)c1)Nc1[nH]nc(-c2ccncc2)c1CO [Example 119]
The IC50 of the first is higher: 1 to 10 µM for the first, less than 1 µM for the second.

With `Cc1c(-c2ccncc2)n[nH]c1NC(=O)C[S+]([O-])c1ccc(Cl)cc1` (stereo not shown) [Example 120, 2-((4-chlorophenyl)sulfinyl)-N-(4-methyl-3-(pyridin-4-yl)-1H-pyrazol-5-yl)acetamide] the IC50 was less than 1 µM.
